Assay results reported in patent US20190060239A1, “Technology for the Preparation of Microparticles” (Ansun Biopharma, Inc., priority 2007, published 2019).

Key:
Assay type in all cases: physicochemical
[1] = Microsphere formation, size and appearance by light microscopy; settings: for Microsphere Size (microns): 5 mg/ml protein
[2] = Cascade Impaction of vancomycin microspheres, New Generation Impactor
Experimental: Vancomycin was dissolved in aqueous buffer at a final concentration of 10 mg/ml. The cocktail contained 5 mM sodium citrate pH 5.0 as counterion and 15% v/v n-propanol as anti-solvent. A 2 ml aliquot of cocktail was frozen in a 10-ml lyophilization vial placed in a −80° C. freezer for 1 hour. The frozen vial was transferred onto a −45° C. lyophilizer shelf and freeze dried for 36 hours.
The microspheres prepared as described in Example 5 were tested by Cascade Impaction using a New Generation Impactor. The deposition of pharmaceuticals in the respiratory tract can be predicted by the aerodynamic behavior of particles (microspheres) on the stages/collection plates of the cascade impactor.
The microspheres (10 mg) were loaded into HPMC (hydroxypropyl methylcellulose) capsule. The capsule was placed into a CycloHaler (PharmaChemie) dry powder inhaler and subjected to cascade impaction. The collection plates of the impactor representing various areas/stages of deposition post-inhalation (trachea, primary and secondary bronchi, terminal bronchi, alveoli, etc.) were coated with silicon spray to prevent bouncing of the microspheres. The microspheres from the stages and collection plates were recovered into a phosphate buffered saline containing 0.1% Tween, and the amount of deposited vancomycin recovered from each stage and collection plate was quantified by measuring absorbance at 280 nm.

[3] = Microsphere quality score by light microscopy (scoring system of Table 13); settings: for microsphere formation: control
Experimental: For each of the compounds listed in A-D above, and for DAS181, cocktail solutions containing 2 mg/ml of compound dissolved in an aqueous solvent and various counterions, antisolvents and pH, as listed below, were prepared in a 96-well microtiter plate (0.1 ml cocktail/well) at room temperature. Control solutions contained either solvent or antisolvent alone, with or without the counterion. Cocktails were cooled by placing in a freezer. The chilled plates were transferred onto pre-chilled (−45° C.) shelves of a Millrock Lab Series Lyophilizer, and the vacuum was applied. The frozen cocktail solutions were allowed to lyophilize for 16 hours.
The lyophilized powders from the bottoms of the wells were transferred onto glass slides and analyzed by light microscopy for appearance. The quality of the product microspheres was scored based on the uniformity of the microspheres, the absence of undesirable non-microsphere particles (glass-like crystalline forms), and the absence of aggregates.
Arginine was used as counterion and isopropanol was used as antisolvent. Concentrations of each of the cocktail components—the compound, the counterion and the antisolvent—were varied as shown below in Table 15, and the effect on microsphere quality assessed.
Experiments were performed to evaluate the effect of antisolvent and counterion concentration variation on the formation of microspheres. The peptides leuprolide and somatostatin, and the antibiotics vancomycin and tobramycin, were tested under a variety of conditions for forming microspheres. Samples were analyzed in 96-well plates as described in the previous Examples.
The experiments were performed using PGI2 and an analog of PGI2, Ciprostene, at a concentration of 2 mg/ml. Cocktail solutions were mixed at room temperature, then cooled by placing in a freezer. The chilled plates were transferred onto pre-chilled (−45° C.) shelves of a Millrock Lab Series Lyophilizer, and the vacuum was applied. The frozen cocktail solutions were allowed to lyophilize for 16 hours.
Because the resulting prostaglandin microspheres are hygroscopic, upon microsphere initiation, the humidity was maintained at low levels during the experiments, using a nitrogen gas tank attached to the backfill system on the lyophilizer. Each of the reaction tubes was flushed with N2. In addition, the backfill valve on the lyophilizer was left open to continually flush a low humidity atmosphere over the samples. The microscope used to visualize the resulting microspheres was contained within a plastic bag that was continually purged with dry N2. Sample tubes were placed under the bag to equilibrate for approximately 30 seconds, before opening and spreading onto the glass slide.
The compound/counterion/antisolvent conditions were as follows:
Experiments were performed with 200 μl of each of the above cocktail solutions in a 2 ml lyophilization bottle (first flash freeze condition), and 25 μl of each of the above cocktail solutions in a PCR tube (second flash freeze condition). The samples in the lyophilization bottles took approximately 15 seconds to freeze. The samples in the PCR tubes took approximately 3 seconds or less to freeze.
The cocktails in the 96-well plates were cooled by placing in a freezer. The chilled plates were transferred onto pre-chilled (−45° C.) shelves of a Millrock Lab Series Lyophilizer, and a vacuum was applied. The frozen cocktail solutions were allowed to lyophilize for 16 hours.
The lyophilized powders from the bottoms of the wells were transferred onto glass slides and analyzed by light microscopy for appearance.

For Green fluorescent protein, the “Microsphere Size (microns)” value ([1]; 5 mM pivalic acid, pH 7.0, 10% 1-propanol) was 0.5-1.5 microns.

For `CN[C@H](CC(C)C)C(=O)N[C@H]1C(=O)N[C@@H](CC(N)=O)C(=O)N[C@H]2C(=O)N[C@H]3C(=O)N[C@H](C(=O)N[C@H](C(=O)O)c4cc(O)cc(O)c4-c4cc3ccc4O)[C@H](O)c3ccc(c(Cl)c3)Oc3cc2cc(c3O[C@@H]2O[C@H](CO)[C@@H](O)[C@H](O)[C@H]2O[C@H]2C[C@](C)(N)[C@H](O)[C@H](C)O2)Oc2ccc(cc2Cl)[C@H]1O` [Vancomycin], the “Percent Deposition of Vancomycin” value ([2]; Capsule + device, size cut-off NA) was 37.57%, the “Percent Deposition of Vancomycin” value ([2]; Throat, size cut-off >10 microns, oral cavity) was 10.48% and the “Percent Deposition of Vancomycin” value ([2]; impactor component 1, size cut-off >8.06 microns, Oral cavity/pharynx) was 3.33%. For the same molecule, the “Percent Deposition of Vancomycin” value ([2]; impactor component 2, size cut-off 4.46-8.06 microns, pharynx) was 7.71%, the “Percent Deposition of Vancomycin” value ([2]; impactor component 3, size cut-off 2.82-4.46 microns, trachea/bronchi) was 15.47% and the “Percent Deposition of Vancomycin” value ([2]; impactor component 4, size cut-off 1.66-2.82 microns, secondary bronchi) was 16.69%. The “Percent Deposition of Vancomycin” value ([2]; impactor component 5, size cut-off 0.94-1.66 microns, terminal bronchi/alveoli) was 6.38%, the “Percent Deposition of Vancomycin” value ([2]; impactor component 6, size cut-off 0.55-0.94 microns, alveoli) was 1.59% and the “Percent Deposition of Vancomycin” value ([2]; impactor component 7, size cut-off 0.34-0.55 microns, alveoli) was 0.51%. The “Percent Deposition of Vancomycin” value ([2]; impactor component 8, size cut-off <0.34 microns, alveoli) was 0.27%, the “Microsphere Quality” value ([3]; compound 2 mg/ml, Na-citrate, pH 5.0 7.5 mM, Isopropanol 5%) was 9/8 and the “Microsphere Quality” value ([3]; compound 2 mg/ml, Na-citrate, pH 5.0 […], Isopropanol 5%) was 9/8. For the same molecule, the microsphere rating ([3]; pH 5) was 9/10 and the “geometric size of microspheres” value ([1]; 10 mg/ml vancomycin, 5 mM sodium citrate pH 5.0, 15% v/v n-propanol, light microscopy) was 1.0-3.0 microns.

With `CC1(C)S[C@@H]2[C@H](NC(=O)[C@H](N)c3ccccc3)C(=O)N2[C@H]1C(=O)O` [Ampicillin] the “Microsphere Quality” value ([3]; 2 mg/ml compound, 2 mM Na-Citrate, 5% n-propanol, pH 5.0) was 3/4 and the “Microsphere Quality” value ([3]; 2 mg/ml compound, 2 mM Na-Glutamate, 5% n-propanol, pH 4.0) was 3-5.

For `NC[C@H]1O[C@H](O[C@H]2[C@H](O)[C@@H](O[C@H]3O[C@H](CO)[C@@H](O)[C@H](N)[C@H]3O)[C@H](N)C[C@@H]2N)[C@H](N)C[C@@H]1O` [Tobramycin], the “Microsphere Quality” value ([3]; compound 2 mg/ml, Itaconic acid-Na, pH 4.0 2 mM, Isopropanol 0%) was 4/5, the “Microsphere Quality” value ([3]; compound 2 mg/ml, Itaconic acid-Na, pH 4.0 2 mM, Isopropanol 5%) was 7/8 and the “Microsphere Quality” value ([3]; compound 2 mg/ml, Itaconic acid-Na, pH 4.0 2 mM, Isopropanol 30%) was 8/9. The “Microsphere Quality” value ([3]; compound 2 mg/ml, Itaconic acid-Na, pH 4.0 2 mM, Isopropanol 40%) was 6/7, the “Microsphere Quality” value ([3]; compound 2 mg/ml, Itaconic acid-Na, pH 4.0 2 mM, Isopropanol […]) was 7/8 and the “Microsphere Quality” value ([3]; compound 2 mg/ml, Itaconic acid-Na, pH 4.0 5 mM, Isopropanol 5%) was “Crystals”. For the same molecule, the “Microsphere Quality” value ([3]; compound 2 mg/ml, Itaconic acid-Na, pH 4.0 10 mM, Isopropanol 5%) was “Crystals”, the “Microsphere Quality” value ([3]; compound 2 mg/ml, Itaconic acid-Na, pH 4.0 15 mM, Isopropanol 5%) was “Crystals” and the “Microsphere Quality” value ([3]; compound 2 mg/ml, Itaconic acid-Na, pH 4.0 17 mM, Isopropanol 5%) was “Crystals”. The “Microsphere Quality” value ([3]; pH 4) was “Crystals”.

For `CCCCC[C@H](O)/C=C/[C@@H]1[C@H]2C/C(=C/CCCC(=O)O)O[C@H]2C[C@H]1O` [Prostaglandin I2], the “Microsphere Quality” value ([3]; compound 2 mg/ml, 2 mM Arginine, pH 9, 20% n-propanol, 5% t-butanol) was 7/8, the “Microsphere Quality” value ([3]; compound 2 mg/ml, 2 mM Arginine, pH 9, 20% n-propanol, 55% t-butanol) was 5/6 and the “Microsphere Quality” value ([3]; compound 2 mg/ml, 2 mM TEA, pH 11, 20% n-propanol, 5% t-butanol) was 7/8. The “Microsphere Quality” value ([3]; compound 2 mg/ml, 2 mM TEA, pH 11, 30% n-propanol, 0% t-butanol) was 2/3.

In the case of Hemoglobin, the “Microsphere Size (microns)” value ([1]; 5 mM glycine, pH 5.0, 10% isopropanol) is reported as 0.4-0.7 microns.

With `C=C(CC(=O)O)C(=O)O` [itaconic acid] the microsphere formation ([3]; no added compound: 2 mM itaconic acid buffered to pH 7, 5% isopropanol) was “hygroscopic microspheres” and the microsphere formation ([3]; no added compound: 2 mM itaconic acid buffered with sodium hydroxide at pH 4, 15% isopropanol) was “microspheres were formed”.

For `CCNC(=O)[C@@H]1CCCN1C(=O)[C@H](CCCNC(=N)N)NC(=O)[C@H](CC(C)C)NC(=O)[C@@H](CC(C)C)NC(=O)[C@H](Cc1ccc(O)cc1)NC(=O)[C@H](CO)NC(=O)[C@H](Cc1c[nH]c2ccccc12)NC(=O)[C@H](Cc1c[nH]cn1)NC(=O)[C@@H]1CCC(=O)N1` [leuprolide], the “Microsphere Quality” value ([3]; 2 mM Na-citrate, 15% isopropanol, pH 4.0) was 5/6.

In the case of Lysozyme: purchased from Sigma, the “Microsphere Size (microns)” value ([1]; 5 mM citrate, pH 8.0, 5% isopropanol) is reported as 4-5 microns.

B1: RNase A: purchased from Sigma (protein, UniProt P61823 27-150, looked up)
Ribonuclease pancreatic: KETAAAKFERQHMDSSTSAASSSNYCNQMMKSRNLTKDRCKPVNTFVHESLADVQAVCSQKNVACKNGQTNCYQSYSTMSITDCRETGSSKYPNCAYKTTQANKHIIVACEGNPYVPVHFDASV
With B1 the “Microsphere Size (microns)” value ([1]; 5 mM citrate, pH 4.0, 5% isopropanol) was 0.4-1 microns.

B2: Trypsin: purchased from Worthington (protein, UniProt P00760 24-246, looked up)
Serine protease 1: IVGGYTCGANTVPYQVSLNSGYHFCGGSLINSQWVVSAAHCYKSGIQVRLGEDNINVVEGNEQFISASKSIVHPSYNSNTLNNDIMLIKLKSAASLNSRVASISLPTSCASAGTQCLISGWGNTKSSGTSYPDVLKCLKAPILSDSSCKSAYPGQITSNMFCAGYLEGGKDSCQGDSGGPVVCSGKLQGIVSWGSGCAQKNKPGVYTKVCNYVSWIKQTIASN
In the case of B2, the “Microsphere Size (microns)” value ([1]; 5 mM arginine, pH 8.0, 5% isopropanol) is reported as 0.5-1 microns.

B3: Ovalbumin: purchased from Sigma (protein, UniProt P01012 2-386, looked up)
Ovalbumin: GSIGAASMEFCFDVFKELKVHHANENIFYCPIAIMSALAMVYLGAKDSTRTQINKVVRFDKLPGFGDSIEAQCGTSVNVHSSLRDILNQITKPNDVYSFSLASRLYAEERYPILPEYLQCVKELYRGGLEPINFQTAADQARELINSWVESQTNGIIRNVLQPSSVDSQTAMVLVNAIVFKGLWEKAFKDEDTQAMPFRVTEQESKPVQMMYQIGLFRVASMASEKMKILELPFASGTMSMLVLLPDEVSGLEQLESIINFEKLTEWTSSNVMEERKIKVYLPRMKMEEKYNLTSVLMAMGITDVFSSSANLSGISSAESLKISQAVHAAHAEINEAGREVVGSAEAGVDAASVSEEFRADHPFLFCIKHIATNAVLFFGRCVSP
In the case of B3, the “Microsphere Size (microns)” value ([1]; 5 mM pivalic acid, pH 4.0, 10% isopropanol) is reported as 0.5-1 microns.

B4: PIN 168 (PI8): hexahistidine-tagged human proteinase inhibitor 8 (SEQ ID NO:15) (protein, listed as Homo sapiens)
chain: MDDLCEANGTFAISLFKILGEEDNSRNVFFSPMSISSALAMVFMGAKGSTAAQMSQALCLYKDGDIHRGFQSLLSEVNRTGTQYLLRTANRLFGEKTCDFLPDFKEYCQKFYQAELEELSFAEDTEECRKHINDWVAEKTEGKISEVLDAGTVDPLTKLVLVNAIYFKGKWNEQFDRKYTRGMLFKTNEEKKTVQMMFKEAKFKMGYADEVHTQVLELPYVEEELSMVILLPDDNTDLAVVEKALTYEKFKAWTNSEKLTKSKVQVFLPRLKLEESYDLEPFLRRLGMIDAFDEAKADFSGMSTEKNVPLSKVAHKCFVEVNEEGTEAAAATAVVRNSRCSRMEPRFCADHPFLFFIRRHKTNCILFCGRFSSP
modifications: hexahistidine tag; protease inhibitor 8 (PI8) (Serpin B8)
With B4 the “Microsphere Size (microns)” value ([1]; 5 mM citrate, pH 5.0, 7% isopropanol) was 2-5 microns.
